This is an account of results in PMC9607164, “Rational Design, Synthesis and Biological Evaluation of Novel Pyrazoline-Based Antiproliferative Agents in MCF-7 Cancer Cells” (Pharmaceuticals, 2022).

For series [1], the system named is MCF-10A normal breast cells. The series can be described thus: MTT cytotoxicity assay on MCF-10A. The following applies: Homo sapiens, 48 h, n = 3, read-out: IC50 ± SD, MCF-10A. It is filed as cell-based. How it is done: (§1) Both breast cancer (MCF-7) and normal breast (MCF-10A) cells were purchased from National Research Institute, Egypt, and maintained in complete media of RPMI-1640 medium L-Glutamine (Lonza Verviers SPRL, Belgium, cat#12-604F). Cells were incubated following standard tissue culture work. Cell viability was measured 48 h later, utilizing MTT colorimetric assay (Promega, Madison, WI, USA). Absorbance was consequently assessed (at 570 nm) using an ELISA microplate reader (BIO-RAD, model iMark, Tokyo, Japan). Using GraphPad Prism 7, the IC50 values were determined, and the viability at each concentration was determined in comparison to the control.
(In general: Tetrazolium assays rely on reduction of a dye to a coloured formazan, in cell work by metabolically active cells.)

For series [2], the system named is MCF-7 cancer cells. The series can be described thus: MTT cytotoxicity assay on MCF-7. It is filed as cell-based. As to conditions: MTT assay, 48 h, n = 3, NA: Non-Active, read-out: IC50 ± SD, MCF-7. How it is done: as §1
For series [3], the target named is T1, HER2 Kinase (Homo sapiens, UniProt P04626).
T1 construct: purchased BPS Bioscience 40721
The series can be described thus: HER2 Kinase Assay Kit (BPS Bioscience). The class given is biochemical. The following applies: mean ± SD of three replicates, five concentrations. How it is done: (§2) Compounds’ autophosphorylation percentage inhibition was computed according to the following equation: […] , then IC50 values were calculated using GraphPad prism software.

For series [4], the target named is T2, EGFR Kinase (Homo sapiens, UniProt P00533).
T2 construct: purchased BPS Bioscience 40321
Briefly: EGFR Kinase Assay Kit (BPS Bioscience). It is filed as biochemical. As to conditions: mean ± SD of three replicates, five concentrations. How it is done:
as §2

Series [5] concerns breast cancer cells MCF-7. As to conditions: cited from earlier work.
The format of series [6] is in vivo. As to conditions: 10 mg/kg BW, IP; MCF-7 control 32.28 g, normal 24.5 g. The text has this:
In vivo experiments for lethal dose (LD50), experimental design, tumor mass, blood parameters, histopathological examinations were accomplished as previously described. After inoculating the tumor cells, masses of the solid tumor started to appear ten days later. […]. Animals from each group were sacrificed, and their blood was drawn to measure hemoglobin (Hb), red blood cell (RBC), white blood cell (WBC), and liver enzymes (ALT, AST, albumin, and total protein) levels.

Setting [7] is: reported pyrazoline-based agents.

Like-named read-outs stand apart in the source and are kept apart here.

T2 sequence (P00533 25-1210): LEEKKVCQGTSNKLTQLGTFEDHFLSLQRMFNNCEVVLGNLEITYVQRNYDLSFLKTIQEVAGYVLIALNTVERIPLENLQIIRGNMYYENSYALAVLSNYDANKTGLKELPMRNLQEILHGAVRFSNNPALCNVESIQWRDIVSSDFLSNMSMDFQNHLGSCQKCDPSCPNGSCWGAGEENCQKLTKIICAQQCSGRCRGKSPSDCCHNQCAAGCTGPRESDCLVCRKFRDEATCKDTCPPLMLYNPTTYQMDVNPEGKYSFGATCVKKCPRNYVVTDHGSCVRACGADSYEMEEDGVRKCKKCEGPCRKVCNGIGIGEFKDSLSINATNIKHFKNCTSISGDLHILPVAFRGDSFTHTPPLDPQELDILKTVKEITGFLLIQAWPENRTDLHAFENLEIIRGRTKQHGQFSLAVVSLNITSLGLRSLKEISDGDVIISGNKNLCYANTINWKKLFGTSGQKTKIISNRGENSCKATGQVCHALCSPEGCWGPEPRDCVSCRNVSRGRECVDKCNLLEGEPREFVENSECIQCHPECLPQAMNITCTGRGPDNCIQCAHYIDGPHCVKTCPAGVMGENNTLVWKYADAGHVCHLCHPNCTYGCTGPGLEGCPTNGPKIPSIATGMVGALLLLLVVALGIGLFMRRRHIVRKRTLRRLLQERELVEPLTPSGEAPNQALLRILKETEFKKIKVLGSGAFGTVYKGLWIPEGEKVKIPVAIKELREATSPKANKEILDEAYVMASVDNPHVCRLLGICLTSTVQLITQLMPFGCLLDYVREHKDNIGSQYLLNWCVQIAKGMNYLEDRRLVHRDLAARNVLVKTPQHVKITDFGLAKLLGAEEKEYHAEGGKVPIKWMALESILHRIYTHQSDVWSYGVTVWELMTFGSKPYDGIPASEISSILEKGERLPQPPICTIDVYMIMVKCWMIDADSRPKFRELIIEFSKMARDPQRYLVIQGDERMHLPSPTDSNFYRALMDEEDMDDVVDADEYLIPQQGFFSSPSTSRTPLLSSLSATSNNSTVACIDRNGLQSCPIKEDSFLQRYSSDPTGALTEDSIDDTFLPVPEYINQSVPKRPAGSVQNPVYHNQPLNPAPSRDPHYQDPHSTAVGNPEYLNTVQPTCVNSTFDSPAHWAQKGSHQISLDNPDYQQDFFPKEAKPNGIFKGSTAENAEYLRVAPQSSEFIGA
T1 sequence (P04626 23-1255): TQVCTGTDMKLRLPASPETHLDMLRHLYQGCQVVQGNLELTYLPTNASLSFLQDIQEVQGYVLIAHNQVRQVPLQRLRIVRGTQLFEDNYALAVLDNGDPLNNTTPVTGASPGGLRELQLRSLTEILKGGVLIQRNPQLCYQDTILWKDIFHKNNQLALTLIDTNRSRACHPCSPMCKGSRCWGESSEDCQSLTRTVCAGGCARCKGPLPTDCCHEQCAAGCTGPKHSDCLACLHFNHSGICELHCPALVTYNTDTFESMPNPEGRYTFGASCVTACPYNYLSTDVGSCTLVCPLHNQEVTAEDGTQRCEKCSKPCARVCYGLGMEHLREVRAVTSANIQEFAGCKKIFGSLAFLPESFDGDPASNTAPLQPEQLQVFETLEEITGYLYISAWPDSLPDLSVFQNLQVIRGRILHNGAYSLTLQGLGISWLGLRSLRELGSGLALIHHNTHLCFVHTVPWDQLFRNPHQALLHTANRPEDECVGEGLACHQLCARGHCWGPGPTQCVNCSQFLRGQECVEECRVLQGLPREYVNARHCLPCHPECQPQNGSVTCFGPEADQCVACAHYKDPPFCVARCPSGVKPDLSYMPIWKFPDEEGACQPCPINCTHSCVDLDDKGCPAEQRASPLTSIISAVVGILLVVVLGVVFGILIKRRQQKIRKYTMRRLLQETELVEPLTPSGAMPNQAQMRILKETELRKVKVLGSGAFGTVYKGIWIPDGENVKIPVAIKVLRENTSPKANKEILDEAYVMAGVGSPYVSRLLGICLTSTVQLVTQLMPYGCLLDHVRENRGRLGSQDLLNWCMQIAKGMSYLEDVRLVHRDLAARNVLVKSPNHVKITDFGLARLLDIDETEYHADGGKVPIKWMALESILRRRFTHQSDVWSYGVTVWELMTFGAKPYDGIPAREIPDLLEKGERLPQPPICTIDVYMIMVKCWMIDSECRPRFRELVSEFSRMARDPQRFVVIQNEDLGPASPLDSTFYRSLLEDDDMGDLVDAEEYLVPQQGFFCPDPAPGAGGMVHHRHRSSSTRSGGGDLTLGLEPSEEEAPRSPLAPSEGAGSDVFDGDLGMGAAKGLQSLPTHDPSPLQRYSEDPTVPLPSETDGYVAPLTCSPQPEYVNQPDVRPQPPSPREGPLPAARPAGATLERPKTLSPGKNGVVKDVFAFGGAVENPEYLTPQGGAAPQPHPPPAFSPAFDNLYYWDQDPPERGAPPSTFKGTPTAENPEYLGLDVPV

Take `COc1ccc(C2=NN(C(N)=S)C(c3ccccc3)C2)cc1OC` (stereo not drawn) [Compound 3a, 3-(3,4-Dimethoxyphenyl)-5-phenyl-4,5-dihydro-1H-pyrazole-1-carbothioamide]: the melting point (commonly the temperature, or range, at which the solid turns liquid) was 188 to 190 °C. The IC50 (in general, the midpoint of a concentration-inhibition curve) in series [1] was 36.5 ± 1.15 µM.
In the case of `COc1ccc(C2CC(c3ccc(OC)c(OC)c3)=NN2C(N)=S)cc1` (stereo not drawn) [Compound 3b, 3-(3,4-Dimethoxyphenyl)-5-(4-methoxyphenyl)-4,5-dihydro-1H-pyrazole-1-carbothioamide], the melting point was 221 to 223 °C. Moreover, the IC50 in series [1] is 34.8 ± 1.35 µM. Besides, the IC50 in series [2] (Homo sapiens, MCF7, 48 h) amounted to 23.6 ± 0.72 µM.
For `COc1ccc(C2=NN(C(N)=S)C(c3ccc(Cl)cc3)C2)cc1OC` (stereo not drawn) [Compound 3c, 5-(4-Chlorophenyl)-3-(3,4-dimethoxyphenyl)-4,5-dihydro-1H-pyrazole-1-carbothioamide], the melting point lay within 230 to 232 °C. Also, the IC50 in series [1] is ≥ 50 µM. The IC50 in series [2] (Homo sapiens, MCF7, 48 h) came to 11.1 µM. Also, the IC50 in series [2] amounted to 11.2 ± 0.54 µM. In series [3], this compound registered an IC50 of 0.07 ± 0.018 µM. The compound further registered an IC50 in series [4] of 0.067 ± 0.009 µM.
Compound `COc1ccc(C2=NN(c3nc(-c4ccccc4)cs3)C(c3ccccc3)C2)cc1OC` (stereo not drawn) [Compound 6a, 2-(3-(3,4-Dimethoxyphenyl)-5-phenyl-4,5-dihydro-1H-pyrazol-1-yl)-4-phenylthiazole] yielded a melting point of 202 to 205 °C. In series [1], the IC50 was ≥ 50 µM.
`COc1ccc(C2=NN(c3nc(-c4ccc(C)cc4)cs3)C(c3ccccc3)C2)cc1OC` (stereo not drawn) [Compound 6b, 2-(3-(3,4-Dimethoxyphenyl)-5-phenyl-4,5-dihydro-1H-pyrazol-1-yl)-4-(p-tolyl)thiazole] displayed a melting point of 210 to 215 °C. Besides, in series [1], the IC50 is ≥ 50 µM. The IC50 in series [2] (Homo sapiens, MCF7, 48 h) came out at 13.4 ± 0.98 µM.
On to `COc1ccc(C2=NN(c3nc(-c4ccc(F)cc4)cs3)C(c3ccccc3)C2)cc1OC` (stereo not drawn) [Compound 6c, 2-(3-(3,4-Dimethoxyphenyl)-5-phenyl-4,5-dihydro-1H-pyrazol-1-yl)-4-(4-fluorophenyl)thiazole], for which the melting point fell in the range of 135 to 140 °C. For the same compound, the half-inhibitory concentration (IC50) in series [1] is ≥ 50 µM. Moreover, the IC50 in series [2] (Homo sapiens, MCF7, 48 h) is 18.7 ± 0.84 µM.
In turn, `COc1ccc(C2=NN(c3nc(-c4ccc(Cl)cc4)cs3)C(c3ccccc3)C2)cc1OC` (stereo not drawn) [Compound 6d, 4-(4-Chlorophenyl)-2-(3-(3,4-dimethoxyphenyl)-5-phenyl-4,5-dihydro-1H-pyrazol-1-yl)thiazole] had a melting point of 195 to 198 °C. Besides, in series [1], the IC50 stood at 45.2 ± 1.24 µM.
For the compound `COc1ccc(C2CC(c3ccc(OC)c(OC)c3)=NN2c2nc(-c3ccc(C)cc3)cs2)cc1` (stereo not drawn) [Compound 6f, 2-(3-(3,4-Dimethoxyphenyl)-5-(4-methoxyphenyl)-4,5-dihydro-1H-pyrazol-1-yl)-4-(p-tolyl)thiazole], the melting point lay in the range of 150 to 152 °C. Further, the IC50 in series [1] was 35.4 ± 1.84 µM. Further, the IC50 in series [2] (Homo sapiens, MCF7, 48 h) was determined as 11.1 ± 0.85 µM. The compound further gave an IC50 in series [3] of 0.12 ± 0.025 µM. Also, the IC50 in series [4] turned out to be 0.23 ± 0.024 µM.
`COc1ccc(C2CC(c3ccc(OC)c(OC)c3)=NN2c2nc(-c3ccc(F)cc3)cs2)cc1` (stereo not drawn) [Compound 6g, 2-(3-(3,4-Dimethoxyphenyl)-5-(4-methoxyphenyl)-4,5-dihydro-1H-pyrazol-1-yl)-4-(4-fluorophenyl)thiazole] gave a melting point of 140 to 143 °C. The 50% inhibitory concentration (IC50) in series [1] worked out at 24.5 ± 1.01 µM. Moreover, the IC50 in series [2] (Homo sapiens, MCF7, 48 h) was 15.4 ± 0.79 µM.
For `COc1ccc(C2CC(c3ccc(OC)c(OC)c3)=NN2c2nc(-c3ccc(Cl)cc3)cs2)cc1` (stereo not drawn) [Compound 6h, 4-(4-Chlorophenyl)-2-(3-(3,4-dimethoxyphenyl)-5-(4-methoxyphenyl)-4,5-dihydro-1H-pyrazol-1-yl)thiazole], in that order: 149 to 151 °C, 26.5 ± 1.59 µM and 35.2 ± 1.27 µM.
For `COc1ccc(C2=NN(c3nc(-c4ccccc4)cs3)C(c3ccc(Cl)cc3)C2)cc1OC` (stereo not drawn) [Compound 6i, 2-(5-(4-Chlorophenyl)-3-(3,4-dimethoxyphenyl)-4,5-dihydro-1H-pyrazol-1-yl)-4-phenylthiazole], in that order: 208 to 210 °C, 15.8 ± 1.08 µM and 45.4 ± 1.87 µM.
The compound `COc1ccc(C2=NN(c3nc(-c4ccc(C)cc4)cs3)C(c3ccc(Cl)cc3)C2)cc1OC` (stereo not drawn) [Compound 6j, 2-(5-(4-Chlorophenyl)-3-(3,4-dimethoxyphenyl)-4,5-dihydro-1H-pyrazol-1-yl)-4-(p-tolyl)thiazole] came in with a melting point of 189 to 191 °C. For the same compound, the IC50 in series [1] was ≥ 50 µM.
Regarding `COc1ccc(C2=NN(c3nc(-c4ccc(Cl)cc4)cs3)C(c3ccc(Cl)cc3)C2)cc1OC` (stereo not drawn) [Compound 6l, 4-(4-Chlorophenyl)-2-(5-(4-chlorophenyl)-3-(3,4-dimethoxyphenyl)-4,5-dihydro-1H-pyrazol-1-yl)thiazole], the melting point lay within 195 to 197 °C. In addition, the IC50 in series [1] was determined as 35.7 ± 1.85 µM. Moreover, the IC50 in series [2] (Homo sapiens, MCF7, 48 h) is 17.6 ± 0.97 µM.
On to `COc1ccc(C2=NN(c3nc(C)c(C(C)=O)s3)C(c3ccccc3)C2)cc1OC` (stereo not drawn) [Compound 9a, 1-(2-(3-(3,4-Dimethoxyphenyl)-5-phenyl-4,5-dihydro-1H-pyrazol-1-yl)-4-methylthiazol-5-yl)ethan-1-one], for which the melting point was 235 to 238 °C. In addition, the concentration for half-maximal inhibition (IC50) in series [1] stood at 18.9 ± 1.09 µM. Also, the half-maximal inhibitory concentration (IC50) in series [2] (Homo sapiens, MCF7, 48 h) worked out at 34.2 ± 1.68 µM.
In the same order, the values of `COc1ccc(C2CC(c3ccc(OC)c(OC)c3)=NN2c2nc(C)c(C(C)=O)s2)cc1` (stereo not drawn) [Compound 9b, 1-(2-(3-(3,4-Dimethoxyphenyl)-5-(4-methoxyphenyl)-4,5-dihydro-1H-pyrazol-1-yl)-4-methylthiazol-5-yl)ethan-1-one] are 213 to 215 °C, 26.3 ± 1.07 µM and 31.7 ± 1.96 µM.
For the compound `COc1ccc(C2=NN(c3nc(C)c(C(C)=O)s3)C(c3ccc(Cl)cc3)C2)cc1OC` (stereo not drawn) [Compound 9c, 1-(2-(5-(4-Chlorophenyl)-3-(3,4-dimethoxyphenyl)-4,5-dihydro-1H-pyrazol-1-yl)-4-methylthiazol-5-yl)ethan-1-one], the melting point was 215 to 218 °C. Also, the IC50 in series [1] is ≥ 50 µM.
The compound `CCOC(=O)c1sc(N2N=C(c3ccc(OC)c(OC)c3)CC2c2ccccc2)nc1C` (stereo not drawn) [Compound 9d, Ethyl 2-(3-(3,4-Dimethoxyphenyl)-5-phenyl-4,5-dihydro-1H-pyrazol-1-yl)-4-methylthiazole-5-carboxylate] had a melting point of 215 to 218 °C. In addition, the IC50 in series [1] was found to be 24.3 ± 1.39 µM.
In turn, `CCOC(=O)c1sc(N2N=C(c3ccc(OC)c(OC)c3)CC2c2ccc(OC)cc2)nc1C` (stereo not drawn) [Compound 9e, Ethyl 2-(3-(3,4-Dimethoxyphenyl)-5-(4-methoxyphenyl)-4,5-dihydro-1H-pyrazol-1-yl)-4-methylthiazole-5-carboxylate] displayed a melting point of 169 to 171 °C. In addition, the IC50 in series [1] amounted to 43.6 ± 1.85 µM. The IC50 in series [2] (Homo sapiens, MCF7, 48 h) came to 18.9 ± 1.03 µM.
`CCOC(=O)c1sc(N2N=C(c3ccc(OC)c(OC)c3)CC2c2ccc(Cl)cc2)nc1C` (stereo not drawn) [Compound 9f, Ethyl 2-(5-(4-Chlorophenyl)-3-(3,4-dimethoxyphenyl)-4,5-dihydro-1H-pyrazol-1-yl)-4-methylthiazole-5-carboxylate] displayed a melting point of 197 to 200 °C. The half-maximal inhibitory concentration (IC50) in series [1] is ≥ 50 µM. Also, the 50% inhibitory concentration (IC50) in series [2] (Homo sapiens, MCF7, 48 h) turned out to be 8.35 ± 0.29 µM. Further, in series [3], the midpoint of inhibition, the IC50, lay at 0.14 ± 0.006 µM. Further, the 50% inhibitory concentration (IC50) in series [4] amounted to 0.051 ± 0.003 µM.
`Cc1nc(Nc2ncc(C(=O)Nc3c(C)cccc3Cl)s2)cc(N2CCN(CCO)CC2)n1` [Dasatinib]: the “MCF-7 (measure not named)” value in series [5] (Figure 2, reported agent) was 17.03 µM.
For the compound `COc1ccc2ccc(=O)oc2c1C1=NN(S(=O)(=O)c2ccc(C)cc2)C(c2ccccc2)C1` (stereo not drawn) [III], the IC50 in series [5] (setting [7]) was 34.1 µM.
On to `O=C1CCC(=O)N1CC(=O)N1N=C(c2ccccc2)CC1c1ccccc1` (stereo not drawn) [II], for which, in series [5] (setting [7]), the IC50 was 0.42 µM.
As for `CC(=O)N1N=C(c2ccc(OC3OC4OC5(C)CCC6C(C)CCC(C3C)C46OO5)cc2)CC1c1ccccc1` (stereo not drawn) [I], the GI50 (in general, the concentration giving 50% growth inhibition) in series [5] (reported pyrazoline-based agent) is 0.13 µM.
As for `CS(=O)(=O)CCNCc1ccc(-c2ccc3ncnc(Nc4ccc(OCc5cccc(F)c5)c(Cl)c4)c3c2)o1` [Lapatinib, reference compound], the IC50 was ≥ 50 µM in series [1] and 7.45 µM in series [2] (Homo sapiens, MCF7, 48 h). In series [6], this compound showed a mice weight of 27.35 g.
As for `O=C1c2ccccc2C(=O)N1CCc1csc(N(/N=C/c2cc(Cl)cc(Cl)c2)C(=O)CCl)n1` [V], the concentration for half-maximal inhibition (IC50) in series [5] (reported thiazole-based agent) is 9.06 µM.
